# Columns and labels:
# [1] = system: A2780 (Humane Ovarian Cancer Cell); experiment: Anti-tumor in vitro test using A2780 (MTT); type: cell-based; conditions: Homo sapiens, A2780, 72 h, 3 days incubation, absorbance at 540 nm, read-out: IC50 (A2780 growth inhibition)
# Protocol: A2780 cells that were suspended on a RPMI 1640 culture medium containing 10% calf serum, penicillin (50 U/ml), and streptomycin (50 μg/ml were seeded in a 96 well flat microplate by 1000 cells (0.2 ml) well, and cultured in a 5% carbon dioxide atmospheric incubator at 37° C. for 1 day. The compounds of the present invention that were dissolved in dimetylsulfoxide anddiluted with a RPMI 1640 containing 10% calf serum to prepare the samples, provided that dimetylsulfoxide was restricted to 0.2% and below in concentration.
# The Supernatant liquids of the above A2780 cells wells were removed by aspiration, and then each 0. 2 ml of the prepared samples were added to the wells, which were incubated in a 5% carbon dioxide atmospheric incubator at 37° C. for 3 days. After the incubation, each 0.01 ml of MTT solutions(3-(4,5-dimethylthiazole-2-yl)-2,5-dipheny-ltetra zolium bromide, 5 mg/ml) were added to the wells, which were incubated for another 2 hrs. After the supernatant liquids in the wells were removed by aspiration, the formazans formed in the wells were dissolved in 0.1 ml of dimetylsulfoxide, and absorbances at 540 nm were measured by a micro plate reader to determine indices of live cells counts in the wells.
# Inhibitory Rate(%)=[(C−T)/C]×100
# where T is absorbance in the well with a test compound and C is absorbance in the well without the compound.
# [2] = target: T1, microtubule proteins originated from swine brain (Sus scrofa, UniProt P02550+P02554); experiment: Tubulin polymerization inhibitory test (turbidity measurement); type: biochemical; conditions: microtubule proteins 2 mg/ml, GTP 1 mM, 37° C. for 30 min, absorbance at 340 nm; read-out: IC50 (tubulin polymerization inhibition) (converted)
# T1 construct: Microtubule proteins was extracted from swine brain by the Shelansky method; from tissue; host or cells: swine brain
# T1 sequence (P02550 whole entry): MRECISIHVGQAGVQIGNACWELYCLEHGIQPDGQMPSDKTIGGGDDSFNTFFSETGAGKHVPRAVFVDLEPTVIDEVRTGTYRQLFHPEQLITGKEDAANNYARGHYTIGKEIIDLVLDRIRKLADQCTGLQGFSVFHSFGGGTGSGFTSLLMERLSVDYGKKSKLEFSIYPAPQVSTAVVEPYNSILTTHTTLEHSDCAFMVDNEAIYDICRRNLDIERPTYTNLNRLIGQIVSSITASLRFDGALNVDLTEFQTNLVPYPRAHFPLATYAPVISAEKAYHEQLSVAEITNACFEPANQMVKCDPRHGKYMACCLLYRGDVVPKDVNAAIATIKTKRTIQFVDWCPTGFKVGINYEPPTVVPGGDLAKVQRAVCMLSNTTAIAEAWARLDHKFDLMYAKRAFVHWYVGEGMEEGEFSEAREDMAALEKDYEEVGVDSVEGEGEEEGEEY
# T1 sequence (P02554 whole entry): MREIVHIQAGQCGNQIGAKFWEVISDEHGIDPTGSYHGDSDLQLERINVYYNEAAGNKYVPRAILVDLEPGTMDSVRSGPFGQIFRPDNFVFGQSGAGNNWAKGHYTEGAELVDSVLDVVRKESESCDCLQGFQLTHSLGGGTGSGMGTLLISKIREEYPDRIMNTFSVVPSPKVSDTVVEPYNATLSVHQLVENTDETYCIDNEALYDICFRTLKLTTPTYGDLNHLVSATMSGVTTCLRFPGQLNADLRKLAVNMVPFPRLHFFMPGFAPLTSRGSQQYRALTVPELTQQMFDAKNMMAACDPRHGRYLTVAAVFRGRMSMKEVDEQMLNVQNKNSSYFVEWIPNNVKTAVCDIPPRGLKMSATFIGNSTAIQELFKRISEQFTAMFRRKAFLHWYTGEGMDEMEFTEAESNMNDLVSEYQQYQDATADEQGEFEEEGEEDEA
# Protocol: Tubulin polymerization inhibitory test using microtubule proteins originated from swine brain: Microtubule proteins was extracted from swine brain by the Shelansky method(Tanpakusitu jikkenhou, Zoku-Seikagaku Jikken Kouza, Vol.6, “Structure and Function of Cytoskeleton” (1st Vol.), Tokyo Kagaku Dojin). Polymerization of microtubule proteins was assayed by turbidity measurement.
# Change in turbidity can be measured by an absorptiometer. The compounds of the present invention were dissolved in dimethylsulfoxide to prepare their test solutions. To 245 μl of a RB solution containing microtubule proteins(2 mg/ml)and GTP(1 mM) was added 5μl of either an above test solution or dimethylsulfoxide to prepare a sample, which was incubated at 37° C. for 30 min. […] Absorbance at 340 nm of the compound was previously measured.
# Inhibitory Rate(%)=[1−(T−Cmin)/(Cmax−Cmin)]×100
# where T is absorbance of the incubated sample with a test compound, Cmax is absorbance of the incubated sample without the compound, and Cmin is the non-incubated sample without the compound.
# [3] = system: collagen-induced arthritis in mice; experiment: Prophylactic experiment of collagen-induced arthritis in mice; type: in vivo; conditions: last day of test
# Protocol: The suspension of M. tuberculosis H37RA in Freund […] adjuvant (2 mg/ml) was mixed with 0.3% typeII collagen (extracted from bovine articular cartilage, Collagen Gijutsu KensyU Kai) in their equal amounts to form an emulsion, 0.1 ml of which was injected subcutaneously into the base of the tail of mice to sensitize it. After twenty-one days, 0.3% type II collagen was diluted with physiological saline solution to the one sixth concentration of the solution, 0.2 ml of which was injected intraperitoneally to sensitize secondarily. The mice that the first sensitizations caused to fall into arthritis were excluded from the test. The suspensions of the compounds(in the Example 13, 27, and 28) in 0.5% sodium carboxy methylcellulose (CMC—Na) were administrated orally to the test group mice once a day for 5 weeks from the day after the second sensitization. 0.5% CMC—Na solutions were administrated to the control group mice to be compared with. Each group was composed of eight mice. […] Scores and their standards are as follows.
# 1: Tumefaction or rubor in only one finger(or heel)
# 2: Tumefaction or rubor in two or above fingers (or heels) or in parts of fore (or hind) paw(s)
# 3: Tumefaction or rubor in the wholes of fore (or hind) paw(s) including joints
# 4: Ankylosis in the joints of finger(s) (or heel(s)) or fore (or hind) paw(s)
# [4] = 50 mg/kg orally once a day for 5 weeks
SMILES,IC50 [1] [µg/mL],IC50 [2] [µM],"Averaged score (arthritis, 0 to 4 per limb, maximum 16) [3, 4]","Averaged score (arthritis, 0 to 4 per limb, maximum 16) ([3]; 25 mg/kg orally once a day for 5 weeks)"
"COc1ccc(S(=O)(=O)Nc2ccccc2NC(=O)C2CSCN2)cc1.Cl (racemic) [Example 15, (±)-N-[2-(4-Methoxybenzenesulfonamide)phenyl]-4-thiazolidine Carboxamide HCl Salt]",0.025,4.3,–,–
"COc1ccc(S(=O)(=O)Nc2ccccc2NC(=O)[C@@H]2CCCN2)cc1.Cl [Example 12, N-[2-(4-Methoxybenzenesulfonamide)phenyl]-(L)-prolinamide HCl Salt]",9.7,–,–,–
COc1ccc(S(=O)(=O)Nc2ccccc2NC(=O)[C@H]2CCCN2)cc1.Cl [Example 17],1.4,–,–,–
"Cc1ccc(S(=O)(=O)Nc2ccccc2NC(=O)c2cnoc2C)cc1 [Example 7, N-[2-(p-Toluenesulfonamide)phenyl]-5-methyl-4-isoxazole Carboxamide]",0.2,13.7,–,–
"Cc1oncc1C(=O)Nc1ccccc1NS(=O)(=O)c1ccccc1 [Example 8, N-[2-(Benzenesulfonamide)phenyl]-5-methyl-4-isoxazole Carboxamide]",6.7,644,–,–
"COc1ccc(S(=O)(=O)Nc2ccccc2NC(=O)c2csc(C)n2)cc1 [Example 3, N-[2-(4-Methoxybenzenesulfonamide)phenyl]-2-methyl-4-thiazole Carboxamide]",0.22,94.2,–,–
"COc1ccc(S(=O)(=O)Nc2ccccc2NC(=O)c2nc(C)oc2C)cc1 [Example 5, N-[2-(4-Methoxybenzenesulfonamide)phenyl]-2,5-dimethyl-4-oxazole Carboxamide]",7.2,–,–,–
"CCc1noc(C)c1C(=O)Nc1ccccc1NS(=O)(=O)c1ccc(OC)cc1 [Example 27, N-[2-(4-Methoxybenzenesulfonamide)phenyl]-3-ethyl-5-methyl-4-isoxazole Carboxamide]",0.034,4.45,1.7 ± 1.1,–
"COc1ccc(S(=O)(=O)Nc2ccccc2NC(=O)C2CCC2)cc1 [Example 24, N-(2-(4-Methoxybenzenesulfonamide)phenyl]-cyclobutyl Carboxamid]",0.006,3.19,–,–
"COc1ccc(S(=O)(=O)Nc2ccccc2NC(=O)c2c(C)noc2-c2ccccc2)cc1 [Example 32, N-[2-(4-Methoxybenzenesulfonamide)phenyl]-3-methyl-5-phenyl-4-isoxazole Carboxamide]",0.62,–,–,–
"COc1ccc(S(=O)(=O)Nc2ccccc2NC(=O)c2cnoc2C)cc1OC [Example 11, N-[2-(3,4-Dimethoxybenzenesulfonamide)phenyl]-5-methyl-4-isoxazole Carboxamide]",0.68,359,–,–
"COc1ccc(S(=O)(=O)Nc2ccccc2NC(=O)c2csnc2C)cc1 [Example 4, N-[2-(4-Methoxybenzenesulfonamide)phenyl]-3-methyl-4-isothiazole Carboxamide]",0.017,3.47,–,–
"COc1ccc(S(=O)(=O)Nc2ccccc2NC(=O)c2c(-c3ccccc3)noc2C)cc1 [Example 31, N-[2-(4-Methoxybenzenesulfonamide)phenyl]-5-methyl-3-phenyl-4-isoxazole Carboxamide]",0.3,–,–,–
"COc1ccc(S(=O)(=O)Nc2ccccc2NC(=O)C2CC2)cc1 [Example 23, N-[2-(4-Methoxybenzenesulfonamide)phenyl]-cyclopropyl Carboxamid]",0.006,3.46,–,–
"COc1ccc(S(=O)(=O)Nc2ccccc2NC(=O)C2CCCCC2)cc1 [Example 22, N-[2-(4-Methoxybenzenesulfonamide)phenyl]-cyclohexyl Carboxamide]",0.14,4.89,–,–
"COc1ccc(S(=O)(=O)Nc2ccccc2NC(=O)c2cccn2C)cc1 [Example 26, N-[2-(4-Methoxybenzenesulfonamide)phenyl]-N-methyl-2-pyrrole Carboxamide]",0.034,4.93,–,–
"COc1ccc(S(=O)(=O)Nc2ccccc2NC(=O)C2CCCCN2)cc1.Cl (racemic) [Example 20, (±)-N-[2-4-Methoxybenzenesulfonamide)phenyl]-2piperidine Carboxamide HCl Salt]",6.8,–,–,–
"COc1ccc(S(=O)(=O)Nc2ccccc2NC(=O)c2ncoc2C)cc1 [Example 21, N-[2-(4-Methoxybenzenesulfonamide)phenyl]-5-methyl-4-oxazole Carboxamide]",0.079,12.1,–,–
COc1ccc(S(=O)(=O)Nc2ccccc2NC(=O)C2CCCC2)cc1 [Example 25],0.05,4.14,–,–
"COc1ccc(S(=O)(=O)Nc2ccccc2NC(=O)c2cn(C)cn2)cc1 [Example 6, N-[2-(4-Methoxybenzenesulfonamide)phenyl]-1-methyl-1H-imidazole-4-carboxamide]",0.14,101,–,–
"CCc1noc(CC)c1C(=O)Nc1ccccc1NS(=O)(=O)c1ccc(OC)cc1 [Example 29, N-[2-(4-Methoxybenzenesulfonamide)phenyl]-3,5-diethyl-4-isoxazole Carboxamide]",0.14,9.2,–,–
"CCc1onc(C)c1C(=O)Nc1ccccc1NS(=O)(=O)c1ccc(OC)cc1 [Example 28, N-[2-(4-Methoxybenzenesulfonamide)phenyl]-5-ethyl-3-methyl-4-isoxazole Carboxamide]",0.013,3.13,3.0 ± 1.1,–
"COc1ccc(S(=O)(=O)Nc2ccccc2NC(=O)c2c(C)noc2C(C)C)cc1 [Example 30, N-[2-(4-Methoxybenzenesulfonamide)phenyl]-5-isopropyl-3-methyl-4-isoxazole Carboxamide]",0.16,7.68,–,–
"COc1ccc(S(=O)(=O)Nc2ccccc2NC(=O)c2c(C)noc2C)cc1 [Example 13, N-[2-(4-Methoxybenzenesulfonamide)phenyl]-3,5-dimethyl-4-isoxazole Carboxamide]",0.01,3.49,0.4 ± 0.4,2.3 ± 0.8
"Cc1oncc1C(=O)Nc1ccccc1NS(=O)(=O)c1ccc(F)cc1 [Example 9, N-[2-(4-Fluorobenzenesulfonamide)phenyl]-5-methyl-4-isoxazole Carboxamide]",13,400,–,–
"COc1ccc(S(=O)(=O)Nc2ccccc2NC(=O)c2cn(C)nc2C)cc1 [Example 2, N-[2-(4-Methoxybenzenesulfonamide)phenyl]-3-dimethyl-4-(1H-pyrazole)carboxamide]",0.58,89.9,–,–
"CCc1oncc1C(=O)Nc1ccccc1NS(=O)(=O)c1ccc(OC)cc1 [Example 14, N-[2-(4-Methoxybenzenesulfonamide)phenyl]-5-ethyl-4-isoxazole Carboxamide]",0.036,4.11,–,–
"COc1ccc(S(=O)(=O)Nc2ccccc2NC(=O)c2cnoc2C)cc1 [Example 1, N-[2-(4-Methoxybenzenesulfonamide)phenyl]-5-methyl-4-isoxazole Carboxamide]",0.023,3.1,–,–
